Test results from paper PMC2802534 (Journal of medicinal chemistry, 2009).

What was measured:
HIV-1IIIB = test: Inhibition of HIV-1 IIIB replication in MT-2 cells, p24 production by ELISA; format: cell-based; details: for fold more potent than 12 and 13: replication of HIV-1 IIIB and 94UG103, relative to 12 and 13
HIV-1 = details: previously identified; cited from earlier work

SMILES	fold more potent than 12 and 13 (HIV-1IIIB)	inhibit HIV-1 infection (HIV-1)	further results
Cc1ccc(-c2ccc(/C=C3\SC(=S)N(CCc4ccccc4)C3=O)o2)cc1C(=O)O [11b, 2-Methyl-5-{5-[4-oxo-3-phenethyl-2-thioxothiazolidin-5-ylidenemethyl]furan-2-yl}-benzoic acid]	more than 20 fold		
O=C(O)c1cc(-n2cccc2)ccc1Cl [compound 13, N-(3-carboxy-4-chloro) phenylpyrrole]		low μM level	
O=C(O)c1cccc(-c2ccc(/C=C3\SC(=S)N(CCc4ccccc4)C3=O)o2)c1 [11a, 3-{5-[4-Oxo-3-phenethyl-2-thioxothiazolidin-5-ylidenemethyl]furan-2-yl}-benzoic acid]	more than 20 fold		
Cc1ccc(C)n1-c1ccc(C(=O)O)c(O)c1 [compound 12, N-(4-carboxy-3-hydroxy)phenyl-2,5-dimethylpyrrole]		low μM level	
O=C(O)c1cc(-c2ccc(/C=C3\SC(=S)N(CCc4ccccc4)C3=O)o2)ccc1Br [11i, 2-Bromo-5-{5-[4-oxo-3-phenethyl-2-thioxothiazolidin-5-ylidenemethyl]furan-2-yl}-benzoic acid]			fold reduction of anti-HIV-1 activity (HIV-1IIIB; relative to unsubstituted 11a): ~ 7 fold
O=C(O)c1cc(-c2ccc(/C=C3\SC(=S)N(CCc4ccccc4)C3=O)o2)ccc1Cl [11d, 2-Chloro-5-{5-[4-oxo-3-phenethyl-2-thioxothiazolidin-5-ylidenemethyl]furan-2-yl}-benzoic acid]	more than 20 fold		fold greater potency than 13 (HIV-1IIIB; relative to 13): ~ 25 fold
